From EP0059645A1, “Method and kit for identification of beta-lactamases” (NATIONAL RESEARCH DEVELOPMENT CORPORATION, priority 1981, dated 1982)
Marks after values point to notes of the source that are not given here.

Key:
Experiment in all cases: Competitive assay with nitrocefin (RSAI)
[1] = target: TEM-2 (Escherichia coli, UniProt P62593, Q37K); format: biochemical, E. coli 1725E
Source text: (§1) It is convenient to express the results in terms of a Relative Substrate Affinity Index (RSAI) value.
(§2) RSAI = Concentration of competing substrate which gives 50% inhibition of ring-opening hydrolysis of the chromogenic substrate
(§3) Concentration of chromogenic substrate in the assay A high RSAI value therefore indicates a low affinity of the beta-lactamase for that competing substrate, and therefore predicts resistance of a beta-lactam competing substrate to hydrolysis by the beta-lactamase. Low RSAI values, in contrast, predict sensitivity to hydrolysis by a beta-lactamase.
(§4) Beta-lactam antibiotics which bind to the TEM-2 enzyme compete with nitrocefin in the assay. […] . This concentration of ampicillin is a direct estimate of the relative affinity of the TEM-2 enzyme for ampicillin. […] . The RSAI value was therefore 1.3.

[2] = tested on: HMS-1; format: biochemical, E. coli 1946
[3] = target: T1, Chromosomal, constitutive beta-lactamase enzyme (Enterobacter cloacae, UniProt P05364); format: biochemical, E. cloacae
T1 construct: Normally, therefore, the beta-lactamase has to be extracted from the cells for the purpose of the present invention; endogenous in cells

[4] = tested on: PSE-3; format: biochemical, Ps.aerug. 1920E
[5] = target: T2, Chromosomal, induced beta-lactamase enzyme (Pseudomonas aeruginosa, UniProt P24735); format: biochemical, Ps.aerug. 1937E + ampicillin
T2 construct: Normally, therefore, the beta-lactamase has to be extracted from the cells for the purpose of the present invention; endogenous in cells; host or cells: Pseudomonas aeruginosa 1937E grown with ampicillin

[6] = tested on: K1073; format: biochemical, Klebsiella 1073
Source text: as §1, §2, §3, §4

[7] = tested on: K17; format: biochemical, Klebsiella 17
Source text: as §1, §2, §3, §4

[8] = target: OXA-3 (Pseudomonas aeruginosa, UniProt Q51429); format: biochemical, E. coli R57B; set-up: Normally, therefore, the beta-lactamase has to be extracted from the cells for the purpose of the present invention; endogenous in cells
[9] = target: PSE-1 (Pseudomonas aeruginosa, UniProt Q03170); format: biochemical, Ps.aerug. 1937E; set-up: Normally, therefore, the beta-lactamase has to be extracted from the cells for the purpose of the present invention; endogenous in cells
[10] = target: PSE-2 (Pseudomonas aeruginosa, UniProt P14489); format: biochemical, Ps.aerug. 1973E; set-up: Normally, therefore, the beta-lactamase has to be extracted from the cells for the purpose of the present invention; endogenous in cells
[11] = target: PSE-4 (Pseudomonas aeruginosa, UniProt P16897); format: biochemical, Ps.aerug. 1559E; set-up: Normally, therefore, the beta-lactamase has to be extracted from the cells for the purpose of the present invention; endogenous in cells
[12] = target: SHV-1 (Escherichia coli, UniProt P0AD63); format: biochemical, E. coli 2008E; set-up: the beta-lactamase has to be extracted from the cells for the purpose of the present invention; made in house; host or cells: E. coli 2008E (crude cell extract)
[13] = target: TEM-1 (Escherichia coli, UniProt P62593); format: biochemical, E. coli 2136E; set-up: the beta-lactamase has to be extracted from the cells for the purpose of the present invention; made in house; host or cells: E. coli 2136E (plasmid-bearing strain; crude cell extract)
[14] = target: OXA-1 (Escherichia coli, UniProt P13661); format: biochemical, E. coli 1527E; set-up: the beta-lactamase has to be extracted from the cells for the purpose of the present invention; made in house; host or cells: E. coli 1527E according to the earlier reading (crude cell extract)
[15] = target: Chromosomal, hyper-induced beta-lactamase enzyme (Escherichia coli, UniProt P00811); format: biochemical, E. coli SNU35; set-up: Normally, therefore, the beta-lactamase has to be extracted from the cells for the purpose of the present invention; endogenous in cells; host or cells: E. coli SNU 35 (artificially produced strain)
[16] = target: OXA-2 (Escherichia coli, UniProt P0A1V9); format: biochemical, E. coli R46; set-up: the beta-lactamase has to be extracted from the cells for the purpose of the present invention; made in house; host or cells: E. coli carrying R46 according to the earlier reading (crude cell extract)
[17] = tested on: K10317; format: biochemical, K.aerog. 10317
Source text: as §1, §2, §3, §4

| Compound | RSAI [1] | RSAI [2] | RSAI [3] | RSAI [4] | RSAI [5] | RSAI [6] | RSAI [7] | RSAI [8] | RSAI [9] | RSAI [10] | RSAI [11] | RSAI [12] | RSAI [13] | RSAI [14] | RSAI [15] | RSAI [16] | RSAI [17] | nature of the binding to the enzyme [9] | nature of the binding to the enzyme [11] |
| --- | --- | --- | --- | --- | --- | --- | --- | --- | --- | --- | --- | --- | --- | --- | --- | --- | --- | --- | --- |
| CC(C)(O/N=C(\C(=O)N[C@@H]1C(=O)N2C(C(=O)[O-])=C(C[n+]3ccccc3)CS[C@H]12)c1csc(N)n1)C(=O)O [Ceftazidime (GR 20,263), Ceftazidime] | 1500 | 10 | 0.1* | 144 | 0.46* | 1420 | 880 | >400 | 600 | >400 | 420 | 1140 | >400 | >2000 | 0.2* | 900 | – | – | – |
| CC1(C)S[C@@H]2[C@H](NC(=O)C(C(=O)O)c3ccccc3)C(=O)N2[C@H]1C(=O)O (some centres unmarked) [Carbeni-cillin, carbenicillin] | 0.4 | 0.09 | 0.0003* | 1.35 | 0.008 | 0.5 | 0.4 | 12 | 1.4 | 5.5 | 3 | 0.5 | 0.6 | 0.5 | 0.00005* | 15 | 0.7 | – | – |
| CO/N=C(\C(=O)N[C@@H]1C(=O)N2C(C(=O)O)=CCS[C@H]12)c1csc(N)n1 [Cefti-zoxime, ceftizoxime] | 1000 | 66 | 0.1 | 120 | 500 | 720 | 220 | 200 | 360 | 128 | 380 | 1400 | 1000 | 50 | 1.7 | 110 | 630 | – | – |
| CO/N=C(\C(=O)N[C@@H]1C(=O)N2C(C(=O)O)=C(CSc3nc(=O)c(=O)[nH]n3C)CS[C@H]12)c1csc(N)n1 [RO-13 9904] | 600 | 14 | 0.0003* | 36 | 38 | 116 | 4 | 3 | 14 | 0.76 | 42 | 160 | 400 | 0.9 | 0.01 | 10 | 74 | – | – |
| CC1=C(C(=O)O)N2C(=O)[C@@H](NC(=O)[C@H](N)C3=CCC=CC3)[C@H]2SC1 [Cephra-dine, cephradine] | 50 | 25 | 1.8 | 3.6 | 1 | 25 | 10.4 | 100 | 46 | 4.2 | 80 | 15 | 35 | 420 | 0.12 | 86 | 18 | – | – |
| CC1(C)S[C@@H]2[C@H](NC(=O)Cc3ccccc3)C(=O)N2[C@H]1C(=O)O [Peni-cillin G, Penicillin G] | 1 | 0.5 | 0.08 | 0.3 | 0.13 | 2 | 1.2 | 0.4 | 0.6 | 0.2 | 0.48 | 1 | 3 | 0.2 | 0.18 | 0.6 | 2.2 | – | – |
| CC1(C)S[C@@H]2[C@H](NC(=O)[C@H](NC(=O)N3CCNC3=O)c3ccccc3)C(=O)N2[C@H]1C(=O)O [Azlo-cillin, Azlocillin] | 1.1 | 0.42 | 0.05 | 0.54 | 0.05 | 1.9 | 1.1 | 9 | 0.23 | 2.64 | 0.36 | 1.6 | 1 | 1.4 | 0.02 | 19 | 3 | – | – |
| CC1(C)[C@H](C(=O)O)N2C(=O)C[C@H]2S1(=O)=O [CP 45,899] | 0.04* | 0.025* | 6.5* | 0.0014 | 2.5* | 0.18 | 0.5 | 0.05* | 0.036 | 16 | 0.015* | 0.018* | 0.02 | 8* | 1.7* | 0.15* | 0.08 | – | – |
| O=C(Cc1cccs1)N[C@@H]1C(=O)N2C(C(=O)[O-])=C(C[n+]3ccccc3)CS[C@H]12 [Cephalo-ridine, cephaloridine] | 20 | 6 | 16 | 2.2 | – | 19.2 | 5.4 | 4.4 | 6 | 22 | 3.5 | 30 | 40 | 60 | 2* | 4 | 30 | – | – |
| O=C(O)[C@H]1/C(=C/CO)O[C@@H]2CC(=O)N21 [Clavulanic acid] | 0.002* | 0.006* | 50 | 0.014 | >40 | 0.004* | 0.004* | 1.6* | 0.0001 | 0.4 | 0.004* | 0.006* | 0.003* | 0.02* | 4 | 0.9* | 0.004* | reversibly | irreversibly |
